Read-outs that look alike come from different tables or passages of the source.
Legend:
Assay type in all cases: biochemical
[1] = target: T1, PRAK (Homo sapiens, UniProt Q8IW41); assay: Kinase screen: PRAK assay
T1 sequence (Q8IW41 1-473): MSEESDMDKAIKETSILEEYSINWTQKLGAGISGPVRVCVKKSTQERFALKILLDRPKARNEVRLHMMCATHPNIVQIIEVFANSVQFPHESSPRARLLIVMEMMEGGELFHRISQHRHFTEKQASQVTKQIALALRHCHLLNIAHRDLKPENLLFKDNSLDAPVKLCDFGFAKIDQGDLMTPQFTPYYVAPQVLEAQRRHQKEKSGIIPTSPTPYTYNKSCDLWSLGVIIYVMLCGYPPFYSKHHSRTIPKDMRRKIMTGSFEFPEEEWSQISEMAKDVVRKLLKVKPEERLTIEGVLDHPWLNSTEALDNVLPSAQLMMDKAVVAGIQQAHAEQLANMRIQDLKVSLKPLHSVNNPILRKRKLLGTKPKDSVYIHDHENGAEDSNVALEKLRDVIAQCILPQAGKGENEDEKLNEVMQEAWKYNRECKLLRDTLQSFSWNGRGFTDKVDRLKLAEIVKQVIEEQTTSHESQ
Experimental: (§1) Generally, the same procedure was used for all assays. Since the total assay volume was 25.5 microliters, 0.5 microliters of inhibitors at 51× assay concentration were added to the plates before any other addition.
(§2) The basic procedure was to add 0.5 microliters inhibitor/control in DMSO to plate. Fifteen microliters of enzyme/substrate/buffer mix were added and incubated for 5 min. Ten microliters MgATP at the relevant concentration were added and incubated for 30 min. The assay was stopped by adding 5 microliters of 3% orthophosphoric acid. The assay was transferred to a p81 filter plate and read in a scintillation counter of 30 sec/well. Note that this assay procedure was not followed for MKK1, which instead involved a two-step assay, and PKC alpha, which required the addition of lipid vesicles.
(50-1000 cpm/pmole) and incubated for 30 min at room temperature. Assays were stopped by addition of 5 μl of 0.5 M (3%) orthophosphoric acid and then harvested onto P81 Unifilter plates with a wash buffer of 50 mM orthophosphoric acid.

[2] = target: CDK2-Cyclin A (Homo sapiens, UniProt P24941); assay: Kinase screen: CDK2/cyclin A assay
Experimental: Generally, the same procedure was used for all assays.
as §2
CDK2/cyclin A assay: CDK2/cyclin A (5-20 mU diluted in 50 mM Hepes pH 7.5, 1 mM DTT, 0.02% Brij35, 100 mM NaCl) was assayed against Histone H1 in a final volume of 25.5 μl containing 50 mM Hepes pH7.5, 1 mM DTT, 0.02% Brij35, 100 mM NaCl, Histone H1 (1 mg/ml), 10 mM magnesium acetate and 0.02 mM [33P-g-ATP] (500-1000 cpm/pmole) and incubated for 30 min at room temperature. Assays were stopped by addition of 5 μl of 0.5 M (3%) orthophosphoric acid and then harvested onto P81 Unifilter plates with a wash buffer of 50 mM orthophosphoric acid.

[3] = target: T2, DYRK2 (Homo sapiens, UniProt Q92630); assay: Kinase screen: DYRK2 assay
T2 sequence (Q92630 1-601): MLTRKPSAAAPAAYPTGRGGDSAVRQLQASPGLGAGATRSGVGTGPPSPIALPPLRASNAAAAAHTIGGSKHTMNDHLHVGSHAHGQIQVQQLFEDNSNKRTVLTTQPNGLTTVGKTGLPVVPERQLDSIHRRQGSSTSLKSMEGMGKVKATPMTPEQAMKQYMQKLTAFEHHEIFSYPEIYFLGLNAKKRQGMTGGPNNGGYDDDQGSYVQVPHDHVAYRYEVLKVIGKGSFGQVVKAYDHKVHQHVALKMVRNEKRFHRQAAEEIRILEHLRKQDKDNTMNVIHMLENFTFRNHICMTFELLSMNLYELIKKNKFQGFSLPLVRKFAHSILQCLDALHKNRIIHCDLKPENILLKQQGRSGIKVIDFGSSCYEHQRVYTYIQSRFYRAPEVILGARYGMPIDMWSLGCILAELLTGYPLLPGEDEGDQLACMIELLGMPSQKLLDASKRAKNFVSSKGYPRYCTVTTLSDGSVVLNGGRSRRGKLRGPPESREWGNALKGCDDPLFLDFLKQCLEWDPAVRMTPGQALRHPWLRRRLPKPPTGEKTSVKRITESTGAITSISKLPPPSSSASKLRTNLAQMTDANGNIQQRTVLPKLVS
Experimental: as §1, §2
DYRK2 assay: DYRK2 (5-20 mU of diluted in 50 mM Tris pH7.5, 0.1 mM EGTA) was assayed against Woodtide ([…]) (SEQ ID NO: 29) in a final volume of 25.5 μ1 containing 50 mM Tris pH 7.5, 0.1 mM EGTA, 350 μM substrate peptide, 10 mM Magnesium acetate and 0.05 mM [33P-g-ATP] (50-1000 cpm/pmole) and incubated for 30 min at room temperature. Assays were stopped by addition of 5 μl of 0.5 M (3%) orthophosphoric acid and then harvested onto P81 Unifilter plates with a wash buffer of 50 mM orthophosphoric acid.

[4] = target: PIM1 (Homo sapiens, UniProt P11309); assay: Kinase screen: PIM1 assay
Chain of PIM1 (P11309 whole entry, species assumed): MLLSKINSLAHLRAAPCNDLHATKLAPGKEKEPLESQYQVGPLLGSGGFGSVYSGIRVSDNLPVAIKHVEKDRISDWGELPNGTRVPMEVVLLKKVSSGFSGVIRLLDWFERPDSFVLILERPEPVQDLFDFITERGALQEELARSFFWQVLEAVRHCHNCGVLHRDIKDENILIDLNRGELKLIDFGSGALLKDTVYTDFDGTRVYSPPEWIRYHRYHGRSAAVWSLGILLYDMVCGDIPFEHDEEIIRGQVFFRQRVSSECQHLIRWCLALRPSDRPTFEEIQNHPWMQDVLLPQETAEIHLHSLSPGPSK
Experimental: as §1, §2
(§3) PIM1 assay: PIM1 (5-20 mU diluted in 50 mM Tris pH 7.5, 0.1 mM EGTA, 0.1% b-mercaptoethanol, 1 mg/ml BSA) was assayed against a substrate peptide ([…]) (SEQ ID NO: 23) in a final volume of 25.5 μl containing 50 mM Tris pH 7.5, 0.05% b-mercaptoethanol, 300 μM substrate peptide, 10 mM magnesium acetate and 0.02 mM [33P-g-ATP] (50-1000 cpm/pmole) and incubated for 30 min at room temperature. Assays were stopped by addition of 5 μl of 0.5 M (3%) orthophosphoric acid and then harvested onto P81 Unifilter plates with a wash buffer of 50 mM orthophosphoric acid.

[5] = target: PAK6 (Homo sapiens, UniProt Q9NQU5); assay: Kinase screen: PAK6 assay
Chain of PAK6 (Q9NQU5 whole entry, species assumed): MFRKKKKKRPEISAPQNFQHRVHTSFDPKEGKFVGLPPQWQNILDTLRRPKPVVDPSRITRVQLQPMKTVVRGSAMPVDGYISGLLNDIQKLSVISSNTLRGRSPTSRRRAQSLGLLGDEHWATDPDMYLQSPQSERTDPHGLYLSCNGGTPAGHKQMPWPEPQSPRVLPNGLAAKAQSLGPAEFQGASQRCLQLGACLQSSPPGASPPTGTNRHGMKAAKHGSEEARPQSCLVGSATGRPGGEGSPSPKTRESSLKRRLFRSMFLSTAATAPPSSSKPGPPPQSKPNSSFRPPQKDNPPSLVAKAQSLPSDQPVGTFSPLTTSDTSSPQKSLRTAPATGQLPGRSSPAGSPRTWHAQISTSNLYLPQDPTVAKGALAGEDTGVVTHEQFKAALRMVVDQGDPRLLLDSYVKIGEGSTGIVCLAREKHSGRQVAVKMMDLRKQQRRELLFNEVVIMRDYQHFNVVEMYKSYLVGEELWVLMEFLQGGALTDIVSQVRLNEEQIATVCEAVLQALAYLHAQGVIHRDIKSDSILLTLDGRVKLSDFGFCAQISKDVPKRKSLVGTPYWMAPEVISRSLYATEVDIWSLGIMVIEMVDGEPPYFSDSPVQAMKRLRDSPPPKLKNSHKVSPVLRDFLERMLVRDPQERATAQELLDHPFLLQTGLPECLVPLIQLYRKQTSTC
Experimental: as §1, §2
as §3, with “PAK6” for “PIM1”, “30)” for “23)”

[6] = 10 micromolar compound, read-out: mean activity remaining (as a percentage of the original activity), PRAK
[7] = 10 micromolar compound, read-out: mean activity remaining (as a percentage of the original activity), CDK 2 - Cyelin A
[8] = 10 micromolar compound, read-out: mean activity remaining (as a percentage of the original activity), DYRK 2
[9] = 10 micromolar compound, read-out: mean activity remaining (as a percentage of the original activity), PIM1
[10] = 10 micromolar compound, read-out: mean activity remaining (as a percentage of the original activity), PAK6

Row | SMILES | remaining activity at 10 µM [1, 6] [%] | remaining activity at 10 µM [2, 7] [%] | remaining activity at 10 µM [3, 8] [%] | remaining activity at 10 µM [4, 9] [%] | remaining activity at 10 µM [5, 10] [%] | also measured
1 | CC(C)c1cnn2c(NCc3ccccc3)cc(NCCCCCCCN)nc12 [BS-181] |  |  |  |  |  | remaining activity at 10 µM ([1]; PRAK, 10 μM, read-out: Mean Remaining Enzyme Activity (%)): 115%; remaining activity at 10 µM ([2]; CDK2-Cyclin A, 10 μM, read-out: Mean Remaining Enzyme Activity (%)): 9%; IC50 ([2]; kinase screen): 750 nM; remaining activity at 10 µM ([3]; DYRK2, 10 μM, read-out: Mean Remaining Enzyme Activity (%)): 94%; remaining activity at 10 µM ([4]; PIM1, 10 μM, read-out: Mean Remaining Enzyme Activity (%)): 88%; remaining activity at 10 µM ([5]; PAK6, 10 μM, read-out: Mean Remaining Enzyme Activity (%)): 95%
2 | C=C[C@H](CO)Nc1cc(NCc2ccccc2)n2ncc(C(C)C)c2n1 [ICEC0065] | 86 | 3 | 90 | 113 | 82 | 
3 | CC[C@H](CO)Nc1cc(NCc2ccccc2)n2ncc(C(C)C)c2n1 [ICEC0067] | 94 | 5 | 90 | 107 | 78 | 
4 | CC(C)c1cnn2c(NCc3ccccc3)cc(N[C@@H](CO)[C@H](O)CO)nc12 [ICEC0318, (3S)-3-(7-(Benzylamino)-3-isopropylpyrazolo[1,5-a]pyrimidin-5-ylamino)butane-1,2,4-triol] | 97 |  | 75 | 103 | 85 | 
5 | CC(C)c1cnn2c(NCc3ccccc3F)cc(NCCCCCN)nc12 [ICEC-0232] |  |  |  |  |  | mean activity remaining (as a percentage of the original activity), PRAK ([1]; 10 micromolar compound): 97%; mean activity remaining (as a percentage of the original activity), CDK 2 - Cyelin A ([2]; 10 micromolar compound): 9%; mean activity remaining (as a percentage of the original activity), DYRK 2 ([3]; 10 micromolar compound): 68%; mean activity remaining (as a percentage of the original activity), PIM1 ([4]; 10 micromolar compound): 110%; mean activity remaining (as a percentage of the original activity), PAK6 ([5]; 10 micromolar compound): 85%

— US8067424B2, “Selective inhibitors for cyclin-dependent kinases” (Emory University, priority 2007, dated 2011)
